Laboratory results published in PubChem BioAssay (NCI).
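Following 48 hours of exposure in 96-well plates, responses at five concentrations were used to interpolate endpoints linearly. Here, GI50 denotes the concentration required for 50% inhibition of growth. At the TGI there is no net growth.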

Key:
Test in all cases: NCI-60 cell line screen, 48 h
SK-MEL-5 melanoma = test system: SK-MEL-5 melanoma
SNB-75 CNS = test system: SNB-75 CNS
MDA-MB-231 breast = test system: MDA-MB-231 breast
SK-MEL-2 melanoma = test system: SK-MEL-2 melanoma
NCI-H226 lung = test system: NCI-H226 lung
DU-145 prostate = test system: DU-145 prostate
OVCAR-5 ovarian = test system: OVCAR-5 ovarian
M14 melanoma = test system: M14 melanoma
NCI/ADR-RES ovarian = test system: NCI/ADR-RES ovarian
A498 renal = test system: A498 renal
OVCAR-4 ovarian = test system: OVCAR-4 ovarian
MDA-N = test system: MDA-N

| SMILES | TGI (SK-MEL-5 melanoma) [µM] | TGI (SNB-75 CNS) [µM] | TGI (MDA-MB-231 breast) [µM] | TGI (SK-MEL-2 melanoma) [µM] | TGI (NCI-H226 lung) [µM] | TGI (DU-145 prostate) [µM] | TGI (OVCAR-5 ovarian) [µM] | TGI (M14 melanoma) [µM] | TGI (NCI/ADR-RES ovarian) [µM] | TGI (A498 renal) [µM] | TGI (OVCAR-4 ovarian) [µM] | TGI (MDA-N) [µM] | GI50 (SK-MEL-5 melanoma) [nM] | GI50 (SNB-75 CNS) [nM] | GI50 (MDA-MB-231 breast) [nM] | GI50 (SK-MEL-2 melanoma) [nM] | GI50 (DU-145 prostate) [nM] | GI50 (OVCAR-5 ovarian) [nM] | GI50 (A498 renal) [nM] |
| --- | --- | --- | --- | --- | --- | --- | --- | --- | --- | --- | --- | --- | --- | --- | --- | --- | --- | --- | --- |
| COC(=O)C1CC2(C)C=CC1N(C(=O)OCc1ccccc1)C2 (configuration not stated) | > 100 | > 100 | > 100 | > 100 | > 100 | > 100 | > 100 | > 100 | > 100 | > 100 | > 100 | – | – | – | – | – | – | – | – |
| COC(=O)c1ccccc1C1CN=NC12Cc1c(ccc3c1CCC3)C2=O (configuration not stated) | 58.6 | > 100 | > 100 | > 100 | > 100 | > 100 | > 100 | > 100 | > 100 | – | > 100 | 49.5 | – | – | – | – | – | – | – |
| Cc1cc(S(=O)(=O)Nc2nc3ncccc3[nH]2)c(S)cc1Cl | > 100 | > 100 | > 100 | – | > 100 | > 100 | > 100 | > 100 | > 100 | > 100 | > 100 | > 100 | – | – | – | – | – | – | – |
| Cc1ccc(S(=O)(=O)N2C[C@@H]3CC[C@]4(CO[Si](C)(C)C(C)(C)C)N[C@@H](c5ccccc5)[C@H]2[C@H]34)cc1 | 30.6 | – | > 100 | > 100 | 57.1 | > 100 | > 100 | > 100 | > 100 | > 100 | > 100 | > 100 | – | – | – | – | – | – | – |
| COc1ccc(-n2c(=O)c3[nH]c(=S)[nH]c3n(-c3ccc(OC)cc3)c2=S)cc1 | > 100 | > 100 | > 100 | > 100 | > 100 | > 100 | > 100 | > 100 | > 100 | > 100 | > 100 | – | – | – | – | – | – | – | – |
| NS(=O)(=O)c1nc(S(=O)(=O)O)c2[nH]cnc2n1 | > 100 | > 100 | > 100 | > 100 | > 100 | – | > 100 | > 100 | > 100 | > 100 | > 100 | > 100 | – | – | – | – | – | – | – |
| O=C(CCN1CCOCC1)/C(=C/c1ccccc1)c1ccccc1 | 21.5 | 21.8 | – | 21.5 | 21.3 | – | 30.4 | – | 17.5 | 23.3 | 23.8 | – | – | – | – | – | – | – | – |
| O=P1(N2CCOCC2)OCCO1 | > 100 | – | – | – | – | > 100 | > 100 | > 100 | > 100 | > 100 | > 100 | > 100 | – | – | – | – | – | – | – |
| O=[N+]([O-])c1ccc(NN=C2CN3CCN(C2)c2ccccc23)c([N+](=O)[O-])c1 | > 100 | – | > 100 | – | – | > 100 | > 100 | > 100 | > 100 | > 100 | > 100 | > 100 | – | – | – | – | – | – | – |
| COc1cccc(N=N/C(=N/NC(=O)c2ccc(C)cc2)c2ccc(N(CCC#N)CCC#N)cc2OC)c1 | > 100 | – | > 100 | > 100 | > 100 | > 100 | 39.1 | > 100 | > 100 | > 100 | > 100 | > 100 | – | – | – | – | – | – | – |
| COC(=O)[C@H](Cc1c[nH]c2ccccc12)NP(=O)(OCCC#N)OCC1OC(n2cc(C)c(=O)[nH]c2=O)CC1N=[N+]=[N-] (some centres not stated) | > 100 | > 100 | > 100 | > 100 | > 100 | > 100 | > 100 | > 100 | > 100 | – | > 100 | > 100 | – | – | – | – | – | – | – |
| Cc1nc2cc(F)c(F)cc2[nH]c1=O | > 100 | > 100 | > 100 | > 100 | > 100 | > 100 | > 100 | > 100 | > 100 | – | > 100 | > 100 | – | – | – | – | – | – | – |
| O=c1c2cc(C(F)(F)F)ccc2sc2c(NCCCNCCO)nc3ccccc3c12 | 3.01 | 2.87 | 2.63 | 3.75 | – | 3.23 | 3.04 | – | – | 3.06 | – | – | 1620 | 1480 | 1280 | 1920 | 1740 | 1630 | 1610 |
| O=C(O)CCC(=O)OCN1C(=O)C2C3C=CC(C2C1=O)C1C2C(=O)N(COC(=O)CCC(=O)O)C(=O)C2C31 (configuration not stated) | > 100 | > 100 | – | > 100 | > 100 | – | > 100 | > 100 | – | > 100 | > 100 | – | – | – | – | – | – | – | – |
| CC1CC/C(=C\c2ccc(F)cc2)C2=C1C(c1ccc(F)cc1)N1C(=O)CSC1=N2 (configuration not stated) | > 100 | – | > 100 | > 100 | > 100 | > 100 | – | > 100 | > 100 | > 100 | – | > 100 | – | – | – | – | – | – | – |
| O=C1COc2cc(N3CCN(c4cccc(C(F)(F)F)c4)CC3)ccc2N1 | > 100 | > 100 | > 100 | > 100 | > 100 | > 100 | > 100 | > 100 | > 100 | – | > 100 | > 100 | – | – | – | – | – | – | – |
| N#Cc1nc2cc(Cl)ccc2nc1N1CCN(c2ccc([N+](=O)[O-])cc2)CC1 | > 100 | > 100 | > 100 | – | – | > 100 | > 100 | > 100 | > 100 | > 100 | > 100 | > 100 | – | – | – | – | – | – | – |
| CC(C)(C)OC(=O)NC12C3C4C1C1C2C3C41NC(=O)OC(C)(C)C (configuration not stated) | > 100 | – | 92.1 | > 100 | – | > 100 | > 100 | > 100 | > 100 | > 100 | > 100 | > 100 | – | – | – | – | – | – | – |
| NCCCN(CCCCN(CCCN)C(=O)OCc1ccccc1)C(=O)OCc1ccccc1 | > 100 | > 100 | 93.7 | > 100 | > 100 | > 100 | > 100 | > 100 | > 100 | > 100 | > 100 | – | – | – | – | – | – | – | – |
| CCc1cccc2c3c([nH]c12)-c1ccccc1NC(=O)C3 | > 100 | > 100 | > 100 | > 100 | > 100 | > 100 | > 100 | > 100 | > 100 | > 100 | – | – | – | – | – | – | – | – | – |
